# Assay results taken from patent publication US20180267067A1, “METHODS FOR BIOANALYSIS OF 6-DIAZO-5-OXO-L-NORLEUCINE (DON) AND OTHER GLUTAMINE ANTAGONISTS” (THE JOHNS HOPKINS UNIVERSITY, priority 2015, published 2018).
# Where two headings read alike, the source gives them in different places.
# Experiments:
# [1] = DON plasma pharmacokinetics in mice after i.v. administration (LC-MS after acidified butanol derivatization); format: in vivo; conditions: male, C57BL/6, mouse, iv, 1.6 mg/kg i.v.
# Method: FIG. 5A and FIG. 5B show: (FIG. 5A) DON concentrations in plasma over time. Mice were administered DON at 1.6 mg/kg (i.v.). Mice were euthanized and blood was collected transcardially 0.25, 0.5, 1, 2, 4 and 6 hours after dosing. Blood was centrifuged, plasma collected and stored at −80° C. N-butanol containing 3N HCl (250 μL) was added directly to samples (50 μL) and centrifuged at 16,000×g for 5 min to precipitate proteins. An aliquot (200 μL) of the supernatant was incubated at 60° C. for 30 min. After derivatization, the samples were analyzed by LC-MS (methods); and (FIG. 5B) DON plasma to brain ratio analysis. Mice were administered DON (0.6 mg/kg, i.p.) and blood and brain were collected 1 h after DON administration. […] Resulting homogenates were centrifuged at 16,000×g for 5 min to precipitate proteins and analyzed the same way as the plasma samples. […]
# (§1) When using plasma, DON was derivatized only using 3N HCl plus n-butanol and subsequently analyzed by LC-MS. […] After derivatization, an aliquot of the reaction mixture (2 μL) was injected and analyzed by LC-MS as stated above. The area under the curve (AUC) representing the signal intensity of the extracted ion (m/z 218.0942) for each sample was used to generate the standard curve using Agilent Mass Hunter Quantitative analysis software. […] DON concentrations in plasma samples were determined by interpolation using the standard curve. […]
# [2] = DON plasma and brain concentrations in mice after i.p. administration (LC-MS after acidified butanol derivatization); format: in vivo; conditions: for Kp at 1 h: brain/plasma
# Method: FIG. 5A and FIG. 5B show: (FIG. 5A) DON concentrations in plasma over time. Mice were administered DON at 1.6 mg/kg (i.v.). Mice were euthanized and blood was collected transcardially 0.25, 0.5, 1, 2, 4 and 6 hours after dosing. Blood was centrifuged, plasma collected and stored at −80° C. N-butanol containing 3N HCl (250 μL) was added directly to samples (50 μL) and centrifuged at 16,000×g for 5 min to precipitate proteins. An aliquot (200 μL) of the supernatant was incubated at 60° C. for 30 min. After derivatization, the samples were analyzed by LC-MS (methods); and (FIG. 5B) DON plasma to brain ratio analysis. Mice were administered DON (0.6 mg/kg, i.p.) and blood and brain were collected 1 h after DON administration. Plasma was isolated from blood samples as described in (FIG. 5A). Brains were collected following perfusion with PBS and frozen immediately at −80° C. Before bioanalysis, brains were weighed and n-butanol containing 3N HCl was added to each sample (5 μL/mg tissue) and homogenized using a pestle. Resulting homogenates were centrifuged at 16,000×g for 5 min to precipitate proteins and analyzed the same way as the plasma samples. All determinations in both (A) and (B) were carried out in triplicate. Error bars correspond to ±S.E.M; and
# When using plasma, DON was derivatized only using 3N HCl plus n-butanol and subsequently analyzed by LC-MS. To generate the standard curve to determine DON concentrations in plasma, DON (10 μL of 1 mM water solution) was added to untreated mouse plasma (90 μL) in a low retention micro-centrifuge tube. Standard solutions (100 μL) were then prepared by serial dilution to generate concentrations from 10 nM to 100 μM at half-log intervals. Prior to extraction, frozen plasma samples were thawed on ice. N-butanol (250 μL) containing 3N HCl was added directly to standards (50 μL), vortexed and centrifuged at 16,000×g for 5 minutes in low retention micro-centrifuge tubes to precipitate proteins. […] After derivatization, an aliquot of the reaction mixture (2 μL) was injected and analyzed by LC-MS as stated above. The area under the curve (AUC) representing the signal intensity of the extracted ion (m/z 218.0942) for each sample was used to generate the standard curve using Agilent Mass Hunter Quantitative analysis software. […] DON concentrations in plasma samples were determined by interpolation using the standard curve.
# When using brain, DON was derivatized only using 3N HCl plus n-butanol and subsequently analyzed by LC-MS. […] After derivatization, an aliquot of the reaction mixture (2 μL) was injected and analyzed by LC-MS as stated above. […] DON concentrations in brain samples were determined by interpolation using the standard curve. […]
# [3] = DON concentration in plasma from DON-treated mice, direct versus derivatization protocols; conditions: male, C57BL/6, mouse, in vivo, iv, 1.6 mg/kg, 1.6 mg/kg i.v., 15 min after administration, N=3, ±S.D.
# Method: Mouse plasma samples were obtained 15 min after DON administration (1.6 mg/kg, i.v.). For LC-MS bioanalysis of underivatized DON from plasma, DON was extracted from plasma with methanol, dried and resuspended in H2O and separated in a Hypercarb column. For LC-MS bioanalysis of derivatized DON from plasma, DON was derivatized in butanol containing 3N HCl for 30 min at 60° C., dried, reconstituted in 30% acetonitrile and separated by RPC. Analytes eluting after each chromatographic separation were detected by QTOF MS. N=3 for each treatment. Error bars correspond to ±S.D.
# Methanol (250 μL) was added to plasma samples containing DON (50 μL); samples were centrifuged for 5 min at 16,000×g to precipitate proteins. […] Analytes were detected with an Agilent 6520 QTOF in MS mode as when analyzing derivatized DON by LC-MS.
# as §1
structure (smiles),measurement,setting,value
"[N-]=[N+]=CC(=O)CC[C@H](N)C(=O)O [DON, 6-Diazo-5-oxo-L-norleucine]",AUC,"[1]; in vivo, 0.25-6 h, read-out: exposure of DON estimated from the area under the curve (AUC)",8 µM·h
same,half-life,[1],1.2 h
same,DON concentration in brain,"[2]; 0.6 mg/kg i.p., 1 h after administration, brains perfused with PBS, ±S.E.M.",0.22±0.18 nmol/g tissue
same,Kp at 1 h,"[2]; male, C57BL/6, mouse, intraperitoneal, 0.6 mg/kg, at 1 h, read-out: brain/plasma ratio",0.1
same,Kp at 1 h,"[2]; male, C57BL/6, mouse, ip, 0.6 mg/kg i.p., 1 h, read-out: brain to plasma ratio",~0.1
same,concentration at 1 h,"[2]; male, C57BL/6, mouse, plasma, ip, 0.6 mg/kg i.p., 1 h after administration, ±S.E.M.",1.7 ± 0.5 µM
same,concentration at 15 min,"[3]; read-out: DON concentration in plasma, derivatization method (acidified butanol, LC-MS)",4.2 µM
same,concentration at 15 min,"[3]; read-out: DON concentration in plasma, direct method (underivatized DON, Hypercarb LC-MS)",3.9 µM
